The values that follow come from patent publication US20140093459A1, “NOVEL COMPOUND” (DSM IP ASSETS B.V., priority 2009, published 2014).

Series [1] in a line: Reduction of solvent necessary to dissolve solid UV-filter. The class given is physicochemical.
A short description of series [2]: Solubility of BEMT in 1:1 (w/w) mixture C12-15 alkyl benzoate/PG-UVAB1 (dissolving, storage 1 month at RT). The class given is physicochemical.
Series [3] in a line: Solubility of BMDBM or BEMT in C12-15 alkyl benzoate (saturation, HPLC of supernatant). It counts as physicochemical.
A short description of series [4]: Comparative: solubility of BMDBM in 1:1 (w/w) mixture of C12-15 alkyl benzoate and a polymeric or solid UV-filter (HPLC after 1 month at RT).
From the text: Where necessary the mixture was centrifuged in order to obtain a clear supernatant.

On to butyl methoxydibenzoylmethane [BMDBM], for which the “amount of 1:1 (w/w) mixture of PG-UVAB1 and diisopropyl sebacate needed to dissolve 0.5 g BMDBM” value in series [1] (1:1 (w/w) PG-UVAB1/diisopropyl sebacate) was 1.4 g. Moreover, the “amount of 1:1 (w/w) mixture of PG-UVAB2 and C12-15 alkyl benzoate necessary to dissolve 0.5 g BMDBM” value in series [1] (1:1 (w/w) PG-UVAB2/C12-15 alkyl benzoate) came out at 1.5 g.
`CCCCC(CC)COc1ccc(-c2nc(-c3ccc(OC)cc3)nc(-c3ccc(OCC(CC)CCCC)cc3O)n2)c(O)c1` (stereo not shown) [BEMT, bis-ethylhexyloxyphenol methoxyphenyl triazine]: in series [2] (200 mg BEMT in 800 mg 1:1 C12-15 alkyl benzoate/PG-UVAB1, stored 1 month at RT), the re-crystallization on storage result was “no re-crystallization occurred”. For the same molecule, the “solubility of BEMT in 1:1 (w/w) mixture of C12-15 alkyl benzoate/PG-UVAB1” value in series [2] (200 mg BEMT in 800 mg of the mixture, 1 month at RT) is on record as “at least 20 wt.-%”. Further, in series [2] (1:1 mixture with PG-UVAB1), the “Solubility of BEMT in C12-15 alkyl benzoate/PG-UVAB1 1:1” value was 20 wt.-% and the “Δ solubility related to cosmetic solvent (BEMT)” value is reported as “+13.5 wt.-%”. In addition, the “Δ solubility (BEMT)” value in series [2] (1:1 mixture with PG-UVAB1 versus C12-15 alkyl benzoate alone) is listed as “+7 wt.-%”. The “Increase of solubility of BEMT” value in series [2] (BEMT, 1:1 mixture with PG-UVAB1 versus C12-15 alkyl benzoate alone) is recorded as “+54%”. Moreover, the “Solubility in C12-15 alkyl benzoate” value in series [3] (C12-15 alkyl benzoate alone (summary table)) is given as 13 wt.-%. For the same molecule, in series [3] (C12-15 alkyl benzoate alone, saturation, HPLC of supernatant), the “solubility in the cosmetic solvent C12-15 alkyl benzoate” value is recorded as 13 wt.-%. Moreover, the “Solubility of BMDBM in C12-15 alkyl benzoate/UV-filter 1:1” value in series [4] (200 mg BMDBM with 1000 mg of 1:1 (w/w) mixture, supernatant HPLC after 1 month at RT) worked out at 3 wt.-%. For the same molecule, the “Δ solubility related to cosmetic solvent (BMDBM)” value in series [4] (1:1 mixture C12-15 alkyl benzoate/UV-filter) is −4 wt.-%. The “Δ solubility (BMDBM)” value in series [4] (1:1 mixture with UV-filter versus C12-15 alkyl benzoate alone) is −11 wt.-%.
